# According to patent US11639371B2, “Peptidylic inhibitors of nucleolin (NCL) targeting CAG-repeat RNA toxicity and methods for reducing polyQ-mediated toxicity in polyQ diseases” (The Chinese University of Hong Kong, priority 2016, dated 2023):
# Peptide text beside a SMILES is read from it.
# Legend:
# [1] = system: primary rat cortical neurons; test: Cytotoxicity test on primary rat cortical neurons; conditions: wild-type primary rat cortical neurons
# DsRedCAG250 flies [2] = test: Lifespan analysis, DsRedCAG250 flies; type: in vivo, Drosophila
# Procedure: (§1) For pseudopupil assay, flies were raised at 21.5° C. on cornmeal medium supplemented with dry yeast. For climbing ability assay, lifespan analysis as well as external eye assay, flies were raised at 25° C. on cornmeal medium supplemented with dry yeast. We usually feed flies at larval stage unless otherwise indicated. For larval stage treatment, third instar larvae were fed with different concentration of TAT-P3L dissolved in 2% sucrose solution for 2 h and then continued to culture in standard fly food. For adult stage treatment, 5 or 10 day-old adult flies were starved for 8 h and then fed with different concentrations of TAT-P3L dissolved in 2% sucrose solution overnight. After treatment, flies were cultured in standard fly food.
# (§2) Pseudopupil assay^18 was performed on 12 day-old adult flies except for Httexon1CAG93 which 1 day-old adult flies were used for the assay. Images were captured by SPOT Insight CCD camera controlled by the SPOT Advanced software (Diagnostic instruments Inc.). External eye assay was performed on 1 day-old adult of CTG480 flies and 2 day-old adult of CGG90 flies using an Olympus SZX-12 stereomicroscope. […] Fly climbing ability was analyzed by negative geotaxis. […] After 1 h recovery, flies were banged to the bottom, and then scored for climbing ability as the percentage of flies remaining at the bottom (<2 cm) at 25s. […]
# Httexon1CAG93 flies = test: Pseudopupil assay, Httexon1CAG93 flies; type: in vivo, Drosophila; conditions: Htt disease model, 1 day-old adults
# Procedure: as §1, §2
# DsRedCAG100 flies = test: Pseudopupil assay, DsRedCAG100 flies; type: in vivo, Drosophila
# Procedure: as §1, §2
# [3] = system: pre-rRNA in DsRedCAG100 flies; test: pre-rRNA expression by real-time PCR in DsRedCAG100 flies; type: in vivo; conditions: DsRedCAG100 Drosophila model, RNA toxicity only
# Procedure: (§3) RNA was extracted from cells by Trizol reagent (Life Technologies), and 1 μg of purified RNA was then used for reverse-transcription using the ImPromII™ Reverse Transcription System (Promega). Random hexamer (Roche) was used as primers in reverse transcription. Taqman gene expression assays were performed on an ABI 7500 Real-time PCR system and data were analyzed as previously described^10. The following probes were used: pre-45s rRNA (Assay ID: AILJIZM), actin (Assay ID: Hs99999903_m1), pre-rRNA (Assay ID: AIMSG5U) and GAPDH for Drosophila (Assay ID: Dm01841186).
# as §1
# flMJDCAG84 flies = test: Pseudopupil assay, flMJDCAG84 flies; type: in vivo, Drosophila; conditions: MJD disease model
# Procedure: as §1, §2
# [4] = system: pre-45s rRNA in EGFPCAG78 RNA expressing-HEK293 cells; test: pre-45s rRNA expression by real-time PCR in EGFPCAG78 RNA-expressing HEK293 cells; type: cell-based, Human; conditions: expanded CAG-repeat RNA-expressing HEK293 cells
# Procedure: as §3
# [5] = system: MJDCAG78-expressing HEK293 cells; test: LDH cytotoxicity assay, MJD disease cell model; type: cell-based, Human; conditions: MJDCAG78-expressing HEK293, CAG-repeat RNA and polyQ protein
# Procedure: (§4) Human embryonic kidney 293 cells were seeded on a 24-well plate at a density of 0.5×10^5, and pcDNA3.1-MJDCAG27/78 or, pEGFPCAG78 or, pcDNA3.1-SCA2CAG22/72/104 or pEGFP-trHttCAG23/73/145 construct was used to transfect the cells. Lactate dehydrogenase enzyme activity in the cell culture medium was measured 72 h post-transfection and drugs treatment using the Cytotox 96 non-radioactive cytotoxicity assay (Promega).
# [6] = system: trHttCAG72/145-expressing HEK293 cells; test: LDH cytotoxicity assay, Htt disease cell model; type: cell-based, Human; conditions: trHttCAG72/145-expressing HEK293, CAG-repeat RNA and polyQ protein
# Procedure: as §4
# DsRedCAG250 flies [7] = test: Climbing ability assay, DsRedCAG250 flies; type: in vivo, Drosophila
# Procedure: as §1, §2
# CGG90 flies = test: External eye assay, CGG90 flies (Fragile X syndrome); type: in vivo, Drosophila
# Procedure: as §1, §2
# [8] = system: EGFPCAG78-expressing HEK293 cells; test: LDH cytotoxicity assay, EGFPCAG78 (only RNA toxicity); type: cell-based, Human
# Procedure: as §4
# [9] = system: SCA2CAG72/104-expressing HEK293 cells; test: LDH cytotoxicity assay, SCA2 disease cell model; type: cell-based, Human; conditions: SCA2CAG72/104-expressing HEK293, CAG-repeat RNA and polyQ protein
# Procedure: as §4
# CTG480 flies = test: External eye assay, CTG480 flies (Myotonic dystrophy 1); type: in vivo, Drosophila
# Procedure: as §1, §2
SMILES,concentration with no observed cytotoxicity (viability not compromised) [1],lifespan (DsRedCAG250 flies [2]),suppression of retinal degeneration (pseudopupil assay) (Httexon1CAG93 flies),suppression of neurodegeneration compared with TAT-P3 (DsRedCAG100 flies; 50 uM concentration),"inhibition of neurodegeneration (retinal degeneration, pseudopupil assay) (DsRedCAG100 flies; larval feeding, 12 day-old adults)",pre-rRNA expression level [3],suppression of retinal degeneration (pseudopupil assay) (flMJDCAG84 flies),pre-45s rRNA transcription level [4],suppression of cell death [5],suppression of cell death [6],"climbing ability (DsRedCAG250 flies [7]; larval treatment, 5, 10 and 15 day-old adult DsRedCAG250 flies)","climbing ability (DsRedCAG250 flies [7]; late adult stage treatment, DsRedCAG250 flies already showing degeneration)",effect on degenerative phenotype (specificity) (CGG90 flies),"suppression of EGFPCAG78 RNA-induced cell death ([8]; LDH enzyme activity, 72 h post-transfection and treatment)","IC50 ([8]; concentration that reduced LDH enzyme activity by 50% vs untreated control, EGFPCAG78 HEK293, read-out: IC50 in inhibiting expanded CAG-repeat RNA-induced cell death) [nM]",suppression of cell death [9],effect on degenerative phenotype (specificity) (CTG480 flies)
CC[C@H](C)[C@H](NC(=O)CNC(=O)[C@H](CCCCN)NC(=O)[C@H](CO)NC(=O)[C@H](CCCCN)NC(=O)CNC(=O)[C@H](CC(=O)O)NC(=O)[C@H](CCCCN)NC(=O)[C@H](CO)NC(=O)[C@@H](NC(=O)[C@H](CC(C)C)NC(=O)[C@H](CCCNC(=N)N)NC(=O)[C@@H](NC(=O)[C@H](CCC(=O)O)NC(=O)[C@H](C)N)[C@@H](C)CC)C(C)C)C(=O)N[C@@H](C)C(=O)N[C@@H](Cc1ccc(O)cc1)C(=O)N[C@H](C(=O)N[C@@H](CCC(=O)O)C(=O)N[C@@H](Cc1ccccc1)C(=O)N[C@@H](CCCCN)C(=O)O)[C@@H](C)CC [P3L] (H-AEIRLVSKDGKSKGIAYIEFK-OH),up to 25 μM,,,,,,,,,,,,,,,,
CC[C@H](C)[C@H](NC(=O)CNC(=O)[C@H](CCCCN)NC(=O)[C@H](CO)NC(=O)[C@H](CCCCN)NC(=O)CNC(=O)[C@H](CC(=O)O)NC(=O)[C@H](CCCCN)NC(=O)[C@H](CO)NC(=O)[C@@H](NC(=O)[C@H](CC(C)C)NC(=O)[C@H](CCCNC(=N)N)NC(=O)[C@@H](NC(=O)[C@H](CCC(=O)O)NC(=O)[C@H](C)NC(=O)[C@H](CCCNC(=N)N)NC(=O)[C@H](CCCNC(=N)N)NC(=O)[C@H](CCCNC(=N)N)NC(=O)[C@H](CCC(N)=O)NC(=O)[C@H](CCCNC(=N)N)NC(=O)[C@H](CCCNC(=N)N)NC(=O)[C@H](CCCCN)NC(=O)[C@H](CCCCN)NC(=O)[C@H](CCCNC(=N)N)NC(=O)CNC(=O)[C@@H](N)Cc1ccc(O)cc1)[C@@H](C)CC)C(C)C)C(=O)N[C@@H](C)C(=O)N[C@@H](Cc1ccc(O)cc1)C(=O)N[C@H](C(=O)N[C@@H](CCC(=O)O)C(=O)N[C@@H](Cc1ccccc1)C(=O)N[C@@H](CCCCN)C(=O)O)[C@@H](C)CC [TAT-P3L] (H-YGRKKRRQRRRAEIRLVSKDGKSKGIAYIEFK-OH),up to 25 μM,extended the lifespan,suppressed retinal degeneration,suppressed neurodegeneration more effectively than TAT-P3,concentration-dependent inhibition of neurodegeneration,restore pre-rRNA expression level,suppressed retinal degeneration,restore the pre-45s rRNA transcription level,concentration-dependent suppression in cell death,concentration-dependent suppression in cell death,ameliorated the climbing ability,dose-dependent improvement of the climbing ability,did not mitigate the phenotypes,significantly suppressed,700,concentration-dependent suppression in cell death,did not mitigate the phenotypes
